Measurements published in patent publication US12115178B2, “Acylated active agents and methods of their use for the treatment of autoimmune disorders” (Flagship Pioneering Innovations V, Inc., priority 2018, dated 2024).

Tests used:
Assay type in all cases: in vitro ADME
[1] = Assay 1. Stability in Simulated Gastric Fluid (SGF); details: SGF pH 1.6 with pepsin, 1 μM, 37° C.
Summary of the method: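 Compound at 1 μM final (from 1 mM DMSO stock) incubated at 37° C in SGF: NaCl medium at pH 1.6 with FaSSIF powder and 0.1 mg/mL pepsin, prepared fresh. Aliquots taken at T0 and regular intervals, quenched with equal volume acetonitrile; LC/MS gives degradation rate.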

[2] = Assay 3. In vitro Colonic Material Stability Assay; details: colonic material slurry, anaerobic, 1 or 10 μM
[3] = Assay 2. Stability in Simulated Intestinal Fluid (SIF); details: SIF pH 6.7 with pancreatin, 1 μM, 37° C.
Summary of the method: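 Compounds at 1 µM (from 1 mM DMSO stock) were incubated at 37 °C with agitation in simulated intestinal fluid: FaSSIF in pH 6.7 phosphate buffer with pancreatin. Aliquots taken from T0 onward were quenched with acetonitrile and analyzed by LC/MS for degradation rate.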

## CCC(=O)O[C@H]1[C@H](OC(=O)CC)[C@@H](OC(=O)CCc2c[nH]c3ccccc23)O[C@@H](C)[C@H]1OC(=O)CC [Compound 77, (2R,3S,4R,5R,6S)-6-methyl-3,4,5-tris(propanoyloxy)oxan-2-yl 3-(1H-indol-3-yl)propanoate]
[1]
  Assay 1 (SGF) (% Remaining @ 1 hour): C (>75% of the tested compound remaining)
[2]
  Assay 3 (% Remaining at 24 h): A (<25% of the tested compound remaining)
[3]
  Assay 2 (SIF) (% @ Remaining 4 hours): C (>75% of the tested compound remaining)

## CCC(=O)O[C@H]1[C@@H](OC(=O)CCc2c[nH]c3ccccc23)OC[C@@H](OC(=O)CC)[C@H]1OC(=O)CC [Compound 94, (2R,3R,4R,5R)-3,4,5-tris(propanoyloxy)oxan-2-yl 3-(1H-indol-3-yl)propanoate]
[1]
  Assay 1 (SGF) (% Remaining @ 1 hour): C (>75% of the tested compound remaining)
[2]
  Assay 3 (% Remaining at 24 h): A (<25% of the tested compound remaining)
[3]
  Assay 2 (SIF) (% @ Remaining 4 hours): A (<25% of the tested compound remaining)

## CCC(=O)O[C@@H]1[C@@H](OC(=O)CC)[C@@H](OC)OC[C@H]1OC(=O)CC [Compound 72, (2S,3R,4S,5R)-2-methoxy-4,5-bis(propanoyloxy)oxan-3-yl propanoate]
[1]
  Assay 1 (SGF) (% Remaining @ 1 hour): C (>75% of the tested compound remaining)
[2]
  Assay 3 (% Remaining at 24 h): A (<25% of the tested compound remaining)
[3]
  Assay 2 (SIF) (% @ Remaining 4 hours): B (25-75% of the tested compound remaining)

## CCCC(=O)O[C@@H]1[C@@H](OC(=O)CCC)[C@@H](OC(=O)CCc2c[nH]c3ccccc23)OC[C@H]1OC(=O)CCC [Compound 96, (2R,3R,4S,5R)-4,5-bis(butanoyloxy)-2-{[3-(1H-indol-3-yl)propanoyl]oxy}oxan-3-yl butanoate]
[1]
  Assay 1 (SGF) (% Remaining @ 1 hour): C (>75% of the tested compound remaining)
[2]
  Assay 3 (% Remaining at 24 h): A (<25% of the tested compound remaining)
[3]
  Assay 2 (SIF) (% @ Remaining 4 hours): A (<25% of the tested compound remaining)

## CCC(=O)O[C@H]1O[C@H](C(=O)O)[C@@H](OC(=O)CC)[C@H](OC(=O)CC)[C@H]1OC(=O)CC [Compound 46, (2S,3S,4S,5R,6R)-3,4,5,6-tetrakis(propanoyloxy)oxane-2-carboxylic acid]
[1]
  Assay 1 (SGF) (% Remaining @ 1 hour): C (>75% of the tested compound remaining)
[2]
  Assay 3 (% Remaining at 24 h): A (<25% of the tested compound remaining)
[3]
  Assay 2 (SIF) (% @ Remaining 4 hours): A (<25% of the tested compound remaining)

## CCC(=O)Oc1ccc(-c2cc(=O)c3c(OC(=O)CC)cc(OC(=O)CC)cc3o2)cc1 [Compound 172, 4-oxo-7-(propanoyloxy)-2-[4-(propanoyloxy)phenyl]-4H-chromen-5-yl propanoate]
[1]
  Assay 1 (SGF) (% Remaining @ 1 hour): C (>75% of the tested compound remaining)
[2]
  Assay 3 (% Remaining at 24 h): B (25-75% of the tested compound remaining)
[3]
  Assay 2 (SIF) (% @ Remaining 4 hours): A (<25% of the tested compound remaining)

## CCC(=O)O[C@@H]1[C@@H](OC(=O)CC)[C@H](OC(=O)Cc2c[nH]c3ccccc23)OC[C@@H]1OC(=O)CC [Compound 103, (3S,4S,5R,6S)-6-{[2-(1H-indol-3-yl)acetyl]oxy}-4,5-bis(propanoyloxy)oxan-3-yl propanoate]
[1]
  Assay 1 (SGF) (% Remaining @ 1 hour): C (>75% of the tested compound remaining)
[2]
  Assay 3 (% Remaining at 24 h): A (<25% of the tested compound remaining)
[3]
  Assay 2 (SIF) (% @ Remaining 4 hours): A (<25% of the tested compound remaining)

## CCCC(=O)OC[C@H]1O[C@H](OC(=O)CCc2c[nH]c3ccccc23)[C@H](OC(=O)CCC)[C@@H](OC(=O)CCC)[C@@H]1OC(=O)CCC [Compound 90, [(2R,3R,4S,5R,6R)-3,4,5-tris(butanoyloxy)-6-{[3-(1H-indol-3-yl)propanoyl]oxy}oxan-2-yl]methyl butanoate]
[1]
  Assay 1 (SGF) (% Remaining @ 1 hour): C (>75% of the tested compound remaining)
[2]
  Assay 3 (% Remaining at 24 h): A (<25% of the tested compound remaining)
[3]
  Assay 2 (SIF) (% @ Remaining 4 hours): B (25-75% of the tested compound remaining)

## CCC(=O)Oc1ccc(-c2cc(=O)c3c(O)cc(OC(=O)CC)cc3o2)cc1 [Compound 168, 5-hydroxy-4-oxo-2-[4-(propanoyloxy)phenyl]-4H-chromen-7-yl propanoate]
[1]
  Assay 1 (SGF) (% Remaining @ 1 hour): B (25-75% of the tested compound remaining)
[2]
  Assay 3 (% Remaining at 24 h): A (<25% of the tested compound remaining)
[3]
  Assay 2 (SIF) (% @ Remaining 4 hours): A (<25% of the tested compound remaining)

## CCCC(=O)Oc1cc(OC(=O)CCC)c2c(c1)O[C@H](c1ccc(OC(=O)CCC)c(OC(=O)CCC)c1)[C@H](OC(=O)CCC)C2 [Compound 193, (2R,3R)-2-[3,4-bis(butanoyloxy)phenyl]-5,7-bis(butanoyloxy)-3,4-dihydro-2H-1-benzopyran-3-yl butanoate]
[1]
  Assay 1 (SGF) (% Remaining @ 1 hour): C (>75% of the tested compound remaining)
[2]
  Assay 3 (% Remaining at 24 h): A (<25% of the tested compound remaining)
[3]
  Assay 2 (SIF) (% @ Remaining 4 hours): A (<25% of the tested compound remaining)

## CO[C@H]1O[C@H](COC(C)=O)[C@@H](OC(C)=O)[C@H](OC(C)=O)[C@@H]1OC(C)=O [Compound 161, (2R,3R,4S,5S,6S)-2-(acetoxymethyl)-6-methoxytetrahydro-2H-pyran-3,4,5-triyl triacetate]
[1]
  Assay 1 (SGF) (% Remaining @ 1 hour): C (>75% of the tested compound remaining)
[2]
  Assay 3 (% Remaining at 24 h): B (25-75% of the tested compound remaining)
[3]
  Assay 2 (SIF) (% @ Remaining 4 hours): C (>75% of the tested compound remaining)

## CCC(=O)O[C@@H]1[C@H](OC(=O)CC)COC(O)[C@@H]1OC(=O)CC (stereo partly drawn) [Compound 105, (3R,4R,5R)-2-hydroxy-4,5-bis(propanoyloxy)oxan-3-yl propanoate]
[1]
  Assay 1 (SGF) (% Remaining @ 1 hour): C (>75% of the tested compound remaining)
[2]
  Assay 3 (% Remaining at 24 h): B (25-75% of the tested compound remaining)
[3]
  Assay 2 (SIF) (% @ Remaining 4 hours): B (25-75% of the tested compound remaining)

## CCC(=O)Oc1cc(C(=O)O)cc(OC(=O)CC)c1OC(=O)CC [Compound 201, 3,4,5-tris(propanoyloxy)benzoic acid]
[1]
  Assay 1 (SGF) (% Remaining @ 1 hour): C (>75% of the tested compound remaining)
[2]
  Assay 3 (% Remaining at 24 h): A (<25% of the tested compound remaining)
[3]
  Assay 2 (SIF) (% @ Remaining 4 hours): A (<25% of the tested compound remaining)

## CCC(=O)O[C@H]1[C@H](OC(=O)Cc2c[nH]c3ccccc23)OC[C@@H](OC(=O)CC)[C@H]1OC(=O)CC [Compound 106, (2S,3R,4R,5R)-2-{[2-(1H-indol-3-yl)acetyl]oxy}-4,5-bis(propanoyloxy)oxan-3-yl propanoate]
[1]
  Assay 1 (SGF) (% Remaining @ 1 hour): C (>75% of the tested compound remaining)
[2]
  Assay 3 (% Remaining at 24 h): A (<25% of the tested compound remaining)
[3]
  Assay 2 (SIF) (% @ Remaining 4 hours): A (<25% of the tested compound remaining)

## CCC(=O)OC[C@H]1O[C@@H](OC(=O)Cc2c[nH]c3ccccc23)[C@H](OC(=O)CC)[C@@H](OC(=O)CC)[C@@H]1OC(=O)CC [Compound 111, [(2R,3R,4S,5R,6S)-6-{[2-(1H-indol-3-yl)acetyl]oxy}-3,4,5-tris(propanoyloxy)oxan-2-yl]methyl propanoate]
[1]
  Assay 1 (SGF) (% Remaining @ 1 hour): C (>75% of the tested compound remaining)
[2]
  Assay 3 (% Remaining at 24 h): A (<25% of the tested compound remaining)
[3]
  Assay 2 (SIF) (% @ Remaining 4 hours): A (<25% of the tested compound remaining)

## CCC(=O)O[C@@H]1O[C@H](C(=O)O)[C@@H](OC(=O)CC)[C@H](OC(=O)CC)[C@H]1OC(=O)CC [Compound 47, (2S,3S,4S,5R,6S)-3,4,5,6-tetrakis(propanoyloxy)oxane-2-carboxylic acid]
[1]
  Assay 1 (SGF) (% Remaining @ 1 hour): C (>75% of the tested compound remaining)
[2]
  Assay 3 (% Remaining at 24 h): A (<25% of the tested compound remaining)
[3]
  Assay 2 (SIF) (% @ Remaining 4 hours): A (<25% of the tested compound remaining)

## CCC(=O)O[C@@H]1[C@H](OC)OC[C@@H](OC(=O)CC)[C@H]1OC(=O)CC [Compound 68, (2R,3S,4R,5R)-2-methoxy-3,5-bis(propanoyloxy)oxan-4-yl propanoate]
[1]
  Assay 1 (SGF) (% Remaining @ 1 hour): C (>75% of the tested compound remaining)
[2]
  Assay 3 (% Remaining at 24 h): B (25-75% of the tested compound remaining)
[3]
  Assay 2 (SIF) (% @ Remaining 4 hours): A (<25% of the tested compound remaining)

## CCC(=O)Oc1ccc(-c2oc3cc(OC(=O)CC)cc(OC(=O)CC)c3c(=O)c2OC(=O)CC)cc1 [Compound 167, 4-[4-oxo-3,5,7-tris(propanoyloxy)-4H-chromen-2-yl]phenyl propanoate]
[1]
  Assay 1 (SGF) (% Remaining @ 1 hour): B (25-75% of the tested compound remaining)
[2]
  Assay 3 (% Remaining at 24 h): A (<25% of the tested compound remaining)
[3]
  Assay 2 (SIF) (% @ Remaining 4 hours): A (<25% of the tested compound remaining)

## CCC(=O)OC[C@H]1O[C@H](OC(=O)Cc2c[nH]c3ccccc23)[C@H](OC(=O)CC)[C@@H](OC(=O)CC)[C@@H]1OC(=O)CC [Compound 114, [(2R,3R,4S,5R,6R)-6-{[2-(1H-indol-3-yl)acetyl]oxy}-3,4,5-tris(propanoyloxy)oxan-2-yl]methyl propanoate]
[1]
  Assay 1 (SGF) (% Remaining @ 1 hour): C (>75% of the tested compound remaining)
[2]
  Assay 3 (% Remaining at 24 h): A (<25% of the tested compound remaining)
[3]
  Assay 2 (SIF) (% @ Remaining 4 hours): A (<25% of the tested compound remaining)
